Laboratory results from the NIST ThermoML archive (doi:10.1016/j.jct.2006.01.013).
Numbers after ± are expanded uncertainties.

Settings: 101.33 kPa, Liquid

CCCCCC[n+]1ccn(C)c1.O=S(=O)([N-]S(=O)(=O)C(F)(F)F)C(F)(F)F
Settings | mass density [kg/m3]
290.95 K | 1378.1 ± 0.8
292.95 K | 1376.3 ± 0.8
294.95 K | 1374.4 ± 0.8
296.95 K | 1372.6 ± 0.8
299 K | 1370.8 ± 0.8
301 K | 1369 ± 0.8
303 K | 1367.2 ± 0.8
305.05 K | 1365.3 ± 0.8
307.05 K | 1363.5 ± 0.8
